Data on 1 molecule can be found in patent US9650616B2, “Methods for increasing grain yield” (University of Florida Research Foundation, Inc., priority 2014, dated 2017).

Assay [1] addresses T1, maize endosperm AGPase, large subunit variant GGR (Q96G, D161G, A443R; numbering of SEQ ID NO: 20) (Zea mays, UniProt P55241+Q84PF5, A443R/D161G/Q96G).
T1 sequence (P55241 46-516 A443R/D161G/Q96G): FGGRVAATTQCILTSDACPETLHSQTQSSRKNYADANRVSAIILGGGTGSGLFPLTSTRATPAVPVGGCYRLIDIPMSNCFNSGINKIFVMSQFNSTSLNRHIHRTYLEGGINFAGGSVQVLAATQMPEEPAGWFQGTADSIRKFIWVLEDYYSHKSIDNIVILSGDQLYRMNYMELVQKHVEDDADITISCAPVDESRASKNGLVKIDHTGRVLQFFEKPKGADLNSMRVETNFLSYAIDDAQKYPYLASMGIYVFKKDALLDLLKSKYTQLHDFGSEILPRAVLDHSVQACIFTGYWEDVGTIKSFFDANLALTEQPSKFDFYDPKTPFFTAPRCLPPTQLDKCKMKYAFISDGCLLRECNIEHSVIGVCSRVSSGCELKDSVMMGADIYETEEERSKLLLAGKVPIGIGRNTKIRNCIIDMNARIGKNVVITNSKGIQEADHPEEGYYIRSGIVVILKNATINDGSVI
T1 sequence (Q84PF5 1-474): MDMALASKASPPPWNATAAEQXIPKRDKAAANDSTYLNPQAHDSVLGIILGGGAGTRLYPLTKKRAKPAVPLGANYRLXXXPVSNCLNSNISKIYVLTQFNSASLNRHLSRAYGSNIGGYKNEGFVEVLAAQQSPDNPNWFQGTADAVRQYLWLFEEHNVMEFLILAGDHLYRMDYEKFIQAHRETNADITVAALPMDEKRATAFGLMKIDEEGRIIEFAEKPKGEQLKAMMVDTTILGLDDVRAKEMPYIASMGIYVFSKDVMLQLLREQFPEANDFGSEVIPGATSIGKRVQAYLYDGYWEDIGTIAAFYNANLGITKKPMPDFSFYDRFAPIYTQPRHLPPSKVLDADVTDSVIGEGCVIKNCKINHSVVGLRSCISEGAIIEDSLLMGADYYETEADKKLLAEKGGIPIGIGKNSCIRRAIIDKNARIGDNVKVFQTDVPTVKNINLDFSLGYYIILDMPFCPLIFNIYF
The assay is described as follows: Pi inhibition in the absence of 3-PGA, GGR. In kind it is biochemical. How it is done:
Next, the kinetics of the GGR mutant were further investigated by following Pi inhibition in the presence and absence of 3-PGA. Experiments were performed by keeping both substrates constant and non-saturating at several fixed concentrations of Pi.
A similar examination of the Pi inhibition was then followed with GGR in the absence of 3-PGA.

Assay [2] concerns the target T1, maize endosperm AGPase, large subunit variant GGR (Q96G, D161G, A443R; numbering of SEQ ID NO: 20). The assay can be described thus: Pi inhibition in the presence of 3-PGA, GGR. The format is biochemical. The conditions noted are these: read-out: Km (ATP), presence of 3-PGA, ATP varied, Pi inhibition, L-MT.
Description: Inhibition by Pi was then followed in the presence of the activator 3-PGA.
Assay [3] addresses T2, maize endosperm AGPase variant T142F (Zea mays, UniProt P55241+Q84PF5, T142F).
T2 construct: data of Boehlein et al., 2013
T2 sequence (P55241 46-516 T142F): T1 sequence (P55241 46-516 A443R/D161G/Q96G) with G51Q, T97F, G116D, R398A
T2 sequence (Q84PF5 1-474): T1 sequence (Q84PF5 1-474)
The assay is described as follows: Apparent kinetic constants with 3-PGA, 37° C., T142F. The format is biochemical. The conditions noted are these: read-out: ATP Km, with 3-PGA, 37° C. How it is done:
An endpoint assay was used to determine the rate of the AGPase reaction by coupling the formation of PPi to a decrease in NADH concentration (Boehlein et al., 2008). […] The Michaelis constants (Km) were obtained by varying one substrate in the presence of saturating concentrations of the second substrate. The activation constants were obtained by varying the activator at fixed levels of both substrates. All reactions were performed at 37° C. and mixes were prewarmed before starting the reaction with enzyme. […] The absorbance at 340 nm was monitored after 30 min and the amount of PPi produced was determined from a standard curve using PPi in complete reaction mixtures lacking AGPase. Blank samples contained complete reaction mixtures without enzyme and the change in absorbance between the blank and the reaction was used to calculate the amount of PPi produced. […]
The apparent Michaelis constant and maximum velocity of each reaction was calculated from a V vs. S plots using nonlinear regression analysis and the following equation, v=VmaxS/(Km+S), where v is the measured velocity, Vmax is the maximum velocity, S is the substrate concentration. […]
Each mutant, comprising 1, 2, 3 or 4 changes, was grown in a large scale culture, expressed and purified according to standard procedures (Boehlein et al., 2005). […] Next, the activation constant, Ka, was determined for each of the mutant enzymes. […]

Assay [4] has as its system maize endosperm AGPase, evolutionary mutant SH2-E (SH2E). The conditions noted are these: presence of 3-PGA, ATP varied, Pi inhibition, NC, read-out: Km (ATP); cited from earlier work.

Changes are numbered by the printed parent chain.

As usually defined, the Km is the substrate concentration at which the rate is half of its maximum. In the case of `Nc1ncnc2c1ncn2[C@@H]1O[C@H](COP(=O)(O)OP(=O)(O)OP(=O)(O)O)[C@@H](O)[C@H]1O` [ATP], the “ATP Km, fold lower than wt AGPase” value in assay [1] (Pi inhibition assay) is “approximately 40 fold”. For the same molecule, the Km in assay [1] (read-out: Km (ATP), ATP varied, Pi inhibition, NC) was 540 µM; in assay [2], 110 µM; in assay [3], 200 µM; in assay [4], 210 µM.
